According to patent US11213546B2, “Methods to mobilize tissue resident cells for adoptive t cell therapy” (Emory University, priority 2017, dated 2022):

Tested on: circulating CD8+ TSP cells and CD34+ SP+ HSCs
Settings: human peripheral blood
From the text: Peripheral blood mononuclear cells (PBMCs) from healthy donors were isolated from buffy coats purchased from New York Blood Center. Gut T cells were obtained from uninvolved intestine in patients undergoing surgery for diverticular disease or gut biopsies. Bone marrow aspirates were obtained from patients with cancer undergoing diagnostic bone marrow biopsies. In some patients, blood samples were collected before and after stem cell mobilization protocol with plerixafor. […] The cells were then washed in ice-cold Hoechst wash buffer and analyzed with BD LSR-II containing UV laser.

c1cc(CN2CCCNCCNCCCNCC2)ccc1CN1CCCNCCNCCCNCC1 [plerixafor, Plerixafor]
circulating CD8+ TSP cells (baseline vs after mobilization, within 24 hours of injection, n=6): marked increase | mobilization of CD34+ SP+ HSCs (concurrent with the CD8+ TSP increase): mobilization
